Source: patent US8084645B2, “4-phenylamino-benzaldoxime derivatives and uses thereof as mitogen-activated protein kinase kinase (MEK) inhibitors” (Chugai Seiyaku Kabushiki Kaisha, priority 2003, dated 2011)
Converted amounts (≈) assume the structure as drawn.

Experiments:
[1] = system: Human colon cancer cell line HT-29; experiment: Determination of the activity of inhibiting cell proliferation (Cell Counting Kit-8); format: cell-based; conditions: HT-29, 96 h, HT29, 2,000 cells/well, incubated four days, read-out: Cell proliferation inhibitory activity (HT29) IC50
Procedure: Human colon cancer cell line HT-29, obtained from American Type Culture Collection (VA, USA), and human non-small cell lung cancer cell line QG56, obtained from Immuno-Biological Laboratories Co., Ltd., were plated at 2,000 cells/well in a 96-well culture plate, and incubated for four days after addition of a MEK inhibitor of a given concentration.

[2] = Determination of stability against human liver microsomes; format: in vitro ADME; conditions: human liver microsomes 1 mg protein/mL, 2 mM NADPH, pH 7.4, 37 C; read-out: Stability against human liver microsome NADPH+ T1/2
Procedure: (§1) The enzyme reaction was quenched with three volumes of acetonitrile, and the reaction mixture was centrifuged at 1,500 rpm for ten minutes to provide a supernatant as a sample to be measured. Stability against human liver microsomes was measured using HPLC/MS to determine the compounds in the sample.

[3] = phase I clinical trials; cited from earlier work
[4] = Determination of stability against mouse liver microsomes; format: in vitro ADME; conditions: mouse liver microsomes 1 mg protein/mL, 2 mM NADPH, pH 7.4, 37 C; read-out: Stability against mouse liver microsome NADPH+ T1/2
Procedure: as §1, with “mouse” for “human”

[5] = Determination of water solubility (equilibrium stirring method); format: physicochemical; conditions: aqueous buffer, thermodynamic from solid; 50 mM phosphate buffer pH 6.5, room temperature (20 C); read-out: Water solubility (LySA PH 6.5)
Procedure: The vessels were sealed, and the contents were sonicated at room temperature (20° C.) for ten minutes, and then stirred with a stirrer for two hours. After reaching solution equilibrium, the solution was separated with a membrane filter, and the solute concentration was determined using HPLC.

MEK = MEK (Homo sapiens, UniProt Q02750); experiment: Determination of MEK inhibitory activities (Raf-1 kinase cascade assay, MBP phosphorylation, 33P-ATP)
MEK, sequence (Q02750 whole entry): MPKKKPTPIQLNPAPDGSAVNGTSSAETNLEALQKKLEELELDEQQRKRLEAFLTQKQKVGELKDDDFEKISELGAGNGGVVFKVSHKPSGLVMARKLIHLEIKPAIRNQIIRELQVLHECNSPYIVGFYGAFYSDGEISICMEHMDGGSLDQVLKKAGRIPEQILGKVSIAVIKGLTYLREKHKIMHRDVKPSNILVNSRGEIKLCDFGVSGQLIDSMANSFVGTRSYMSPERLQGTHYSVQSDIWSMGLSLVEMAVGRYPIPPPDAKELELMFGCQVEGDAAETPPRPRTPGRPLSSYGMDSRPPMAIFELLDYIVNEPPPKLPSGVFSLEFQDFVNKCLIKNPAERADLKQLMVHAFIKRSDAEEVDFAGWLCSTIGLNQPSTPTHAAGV
Description: The radioisotope used was [γ^33P]-ATP (Amersham Biosciences, K.K.).

IC50 [1] [µM]	half-life [2] [h]	half-life [4] [h]	solubility at 2 h [5] [µM]	IC50 (MEK) [µM]	Compound	differences in pharmacokinetic parameters between patients [3]	in vivo inactivation [3]
0.0046	1.62	> 6	12 (≈ 7.13 µg/mL)	0.037	CNC(=O)CCCO/N=C\c1cc(C(=O)NOCCO)c(Nc2ccc(I)cc2F)c(F)c1F [Compound 55]	–	–
0.0034	> 6	0.645	85 (≈ 48.1 µg/mL)	0.049	CNC(=O)CO/N=C\c1cc(C(=O)NOCCO)c(Nc2ccc(I)cc2F)c(F)c1F [Compound 56, (Z)-3,4-Difluoro-2-(2-fluoro-4-iodo-phenylamino)-N-(2-hydroxy-ethoxy)-5-(methylcarbamoylmethoxyimino-methyl)-benzamide]	–	–
0.027	> 6	> 6	224 (≈ 134 µg/mL)	0.019	O=C(CO/N=C\c1cc(C(=O)NOCCO)c(Nc2ccc(I)cc2F)c(F)c1F)NCCO [Compound 57, (Z)-3,4-Difluoro-2-(2-fluoro-4-iodo-phenylamino)-N-(2-hydroxy-ethoxy)-5-{[(2-hydroxyethylcarbamoyl)-methoxyimino]-methyl}-benzamide]	–	–

Compound	IC50 [1] [µM]	half-life [2] [h]	half-life [4] [h]	solubility at 2 h [5] [µM]	IC50 (MEK) [µM]	differences in pharmacokinetic parameters between patients [3]	in vivo inactivation [3]
O=C(NOCC1CC1)c1ccc(F)c(F)c1Nc1ccc(I)cc1Cl [CI-1040, reference compound]	0.1	0.482	0.18	–	–	large differences	quick in vivo inactivation by hydrolysis
